# In patent US20070197435A1, “Process for the synchronization of ovulation for timed breeding without heat detection” (priority 2006, published 2007):
# Experiments:
# [1] = tested on: ovariectomized estrogen primed gilt model; assay: Dose response study of deslorelin in SAIB, LH release determined by RIA; type: in vivo, swine; settings: single injection of 50 mcg deslorelin in SAIB
# Description: A dose response study was performed using deslorelin in SAIB in an ovariectomized estrogen primed gilt model (Barb, et al. (1999) Proceed. Int'l. Symp. Control. Rel. Bioact. Mater., 26).
# [2] = tested on: mature postpartum sows; assay: Intravulvar deslorelin at estrus detection, estrus length, pregnancy rate and live piglets; type: in vivo, swine; settings: 50 μg deslorelin acetate intravulvar at first estrus detection
# Description: Sows were assigned randomly in blocks of two to either control or to be injected intravulvar with 50 mcg of deslorelin in SAIB at the time of estrus detection for sows first detected in estrus in the a.m. and 12 hours later for those first detected in estrus in the p.m. Treated animals were bred Al upon detected estrus and again 24 hours later if still in estrus. Controls received a saline injection on first detected estrus behavior estrus detection and were bred according to the farm's normal procedures. Saline sows bred at detected estrus consistent with farm sows. Deslorelin sows injected intravulvar with 1 ml (50 μg deslorelin acetate) at first estrus detection and AI, then AI again if in estrus the next day. Live piglet number 0.6>in Deslorelin versus Saline sows.
structure (smiles),measurement,setting,value
"CCNC(=O)[C@@H]1CCCN1C(=O)[C@H](CCCN=C(N)N)NC(=O)[C@H](CC(C)C)NC(=O)[C@@H](Cc1c[nH]c2ccccc12)NC(=O)[C@H](Cc1ccc(O)cc1)NC(=O)[C@H](CO)NC(=O)[C@H](Cc1c[nH]c2ccccc12)NC(=O)[C@H](Cc1cnc[nH]1)NC(=O)[C@@H]1CCC(=O)N1 [Deslorelin, deslorelin]",Time by which LH returned to base level,[1],≤ 18 h
same,"Live piglet number, greater in Deslorelin versus Saline sows (per litter)",[2],0.6
